Laboratory results taken from patent publication US20040034028A1, “4-(biphenylcarbonylamino)piperidine derivatives as mtp inhibitors” (priority 2000, published 2004).

How the values were obtained:
[1] = target: T1, microsomal triglyceride transfer protein (MTP) (Mesocricetus auratus, UniProt P55158); assay: Inhibition of the activity of MTP (transfer of labelled triglyceride, SPA); assay type: biochemical, golden hamster; conditions: hamster liver MTP, [3H]-trioleine donor liposomes, biot-LDL acceptor, 18-24 hours at 37° C.; read-out: IC50, concentration which allows a 50% inhibition of MTP
T1 construct: The supernatant containing the soluble MTP is dialysed; from tissue; host or cells: golden hamster liver microsomes
T1 sequence (P55158 19-895): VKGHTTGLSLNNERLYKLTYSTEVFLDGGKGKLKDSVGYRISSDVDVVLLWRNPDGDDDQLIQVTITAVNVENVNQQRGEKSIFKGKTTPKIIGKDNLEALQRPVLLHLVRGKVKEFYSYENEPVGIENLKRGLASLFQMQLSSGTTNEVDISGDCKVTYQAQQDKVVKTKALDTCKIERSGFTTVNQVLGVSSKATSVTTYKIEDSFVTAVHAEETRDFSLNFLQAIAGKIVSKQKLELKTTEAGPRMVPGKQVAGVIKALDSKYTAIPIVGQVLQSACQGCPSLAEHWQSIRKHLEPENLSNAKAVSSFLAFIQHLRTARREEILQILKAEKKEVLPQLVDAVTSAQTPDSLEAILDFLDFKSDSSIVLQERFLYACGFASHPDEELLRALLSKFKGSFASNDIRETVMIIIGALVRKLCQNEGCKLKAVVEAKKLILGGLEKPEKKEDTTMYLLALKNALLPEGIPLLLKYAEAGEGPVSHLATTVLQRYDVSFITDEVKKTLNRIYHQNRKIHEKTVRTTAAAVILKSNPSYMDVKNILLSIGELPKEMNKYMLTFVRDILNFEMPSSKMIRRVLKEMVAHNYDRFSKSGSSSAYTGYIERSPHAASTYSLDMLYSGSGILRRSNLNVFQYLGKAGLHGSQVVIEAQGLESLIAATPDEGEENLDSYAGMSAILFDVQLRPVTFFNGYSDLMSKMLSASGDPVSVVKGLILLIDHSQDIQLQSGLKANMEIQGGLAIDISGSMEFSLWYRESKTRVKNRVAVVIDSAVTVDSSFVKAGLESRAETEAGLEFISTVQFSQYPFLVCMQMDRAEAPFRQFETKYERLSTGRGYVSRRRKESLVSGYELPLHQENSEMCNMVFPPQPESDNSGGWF
Experimental: Analysis of th inhibition of the activity of MTP The inhibition of the activity of microsomal triglyceride transfer protein MTP) was tested using the following protocal.
The inhibition of the activity of MTP with a compound may be quantified by observing the inhibition of the transfer of a labeled triglyceride, from a donor particle to an acceptor particle, in the presence of MTP. The procedure for preparing MTP is based on the method by Wetterau and Zilversmit (Biochem. Biophys. Acta (1986) 875 610). A few grams of golden hamster liver are taken and then rinsed several times in a 250 mM sucrose solution at 0° C. All the following steps proceed at +4° C. A 50% homogenate in 250 mM sucrose is prepared using a Teflon mill and then centrifuged for 10 minutes at 10 000×g at +4° C. The supernatant is then centrifuged at 105 000×g for 75 minutes at +4° C. The supematant is removed and the microsomal pellet is taken up in 3 ml (per gram of starting liver) of 150 mM pH 8.0 Tris/HCl. 1 ml aliquot fractions are stored at −80° C. until use.
After thawing a fraction of microsomes (1 ml), 12 ml of refrigerated 50 mM Tris/HCl, 50 mM KCl, 5 mM MgCl2, pH 7.4 buffers and 1.2 ml of deoxycholate (0.54% in water) are added. After incubating for 30 minutes at +4° C. with gentle agitation, the suspension is centrifuged at 105 000×g for 75 minutes. The supernatant containing the soluble MTP is dialysed against 150 mM Tris/HCl, 40 mM NaCl, 1 mM EDTA, 0.02% sodium azide, pH 7.4 buffer (5 times one litre over 2-3 days). […]
The acceptor particles are biotinylated low-density lipoproteins (biot-LDL). […] After incubating for 18-24 hours at 37° C. the reaction is quenched by adding 100 μl of Amersham SPA (Scintillation Proximity Assay) beads coupled to steptavidin and the radioactivity is counted using a Top Count (Packard) at least one hour later. The inhibition of the transfer of triglycerides by a compound is reflected by a reduction in the radioactivity transferred. The percentage of inhibition for a given compound is determined relative to controls which contain no compounds in the reaction mixture. […]

[2] = tested on: secretion of apo B in Hep G2 cells; assay: Inhibition of the secretion of apo B in the Hep G2 human cell line (ELISA); assay type: cell-based; conditions: HepG2, 24 hours incubation, sandwich ELISA for human apo B, read-out: IC50, concentration which produces a 50% inhibition of the secretion of apo B in the Hep G2 cells
Experimental: Analysis of the secretion of apo B in the Hep G2 human cell line:
The activity of a compound according to the invention may be evaluated by measuring the inhibition of the secretion of apo B in Hep G2 cells.
The Hep G2 cells (ECACC—number 85011430) are used as a model in the study of the in vitro hepatic secretion of lipoproteins (Dixon J. and Ginsberg H.—J. Lipid. Res.—1993, 34:167-179).
The Hep G2 cells are cultured in a Dulbecco's modified Eagle medium containing 10% foetal calf serum (DMEM and FCS—Gibco) in 96-well plates in an atmosphere of 5% carbon dioxide for 24 hours (about 70% confluence).
The test compounds are dissolved at 2 or 10 mM in dimethyl sulphoxide (DMSO). Serial dilutions (1:3.16) are performed in DMSO and added (1:200—Robot Multim Beckman) to the growth medium (200 microlitres) and finally incubated for 24 hours in the various wells containing the Hep G2 cells.
The 24-hour culture supernatant diluted to 1:5 (phosphate-buffered saline: PBS containing 1% bovine serum albumin) is tested according to a sandwich ELISA method which is specific for human apo B.
The results are expressed in terms of IC50, namely the concentration which produces a 50% inhibition of the secretion of apo B in the Hep G2 cells.

Row | Compound | IC50 [1] | IC50 [2] | melting point
1 | Cc1cccc(CN2CCC(NC(=O)c3ccccc3-c3ccc(C(F)(F)F)cc3)CC2)n1 [A-5, 1-[(6-methyl-2-pyridyl)methyl]-4-[(4′-trifluoromethyl-2-biphenyl)carbonylamino]-piperidine] | 65 nM | 3 nM | 170 °C
2 | O=C(NC1CCN(Cc2ccc3ccccc3n2)CC1)c1ccccc1-c1ccc(C(F)(F)F)cc1 [A-8, 1-(2-quinolylmethyl)-4-[(4′-trifluoromethyl-2-biphenyl)carbonylamino]-piperidine] | 26 nM | 2 nM | 210 °C
3 | Cc1ncccc1CN1CCC(NC(=O)c2ccccc2-c2ccc(C(F)(F)F)cc2)CC1 [A-7, 1-[(2-methyl-3-pyridyl)methyl]-4-[(4′-trifluoromethyl-2-biphenyl)carbonylamino]-piperidine] | 84 nM | 74 nM | 
